Measured values reported in patent US20230212526A1, “PLURIPOTENT STEM CELL-DERIVED HEART ORGANOID” (Board of Trustees of Michigan State University, priority 2020, published 2023).

Experiments:
[1] = test system: human heart organoids (hHOs); experiment: Second CHIR99021 exposure on day 7: epicardial cell and cardiomyocyte formation in hHOs (confocal quantification); assay type: cell-based
Procedure: Self-assembling hHO differentiation. Accutase® (Innovative Cell Technologies) was used to dissociate PSCs for spheroid formation. After dissociation, cells were centrifuged at 300 g for 5 minutes and resuspended in Essential 8™ Flex medium containing 2 μM ROCK inhibitor Thiazovivin (Millipore Sigma). hPSCs were then counted using a Moxi Cell Counter (Orflo Technologies) and seeded at 10000 cells/well in round bottom ultra-low attachment 96-well plates (Costar) on day −2. The plate was then centrifuged at 100 g for 3 minutes and placed in an incubator at 37° C. and 5% CO2. After 24 hours (day −1), 50 μl of media was carefully removed from each well and 200 μl of fresh Essential 8™ Flex medium was added for a final volume of 250 μl/well. The plate was returned to the incubator for a further 24 hours. On day 0, 166 μl (approximately ⅔ of total well volume) of media was removed from each well and 166 μl of RPMI 1640 with B27™ Supplement, minus insulin (Gibco) containing CHIR99021 (Selleck) was added at a final concentration of 4 μM/well along with BMP4 at 0.36 pM (1.25 ng/ml) and ActA at 0.08 pM (1 ng/ml) for 24 hours. On day 1, 166 μl of media was removed and replaced with fresh RPMI 1640 with B27™ Supplement, minus insulin. On day 2, RPMI 1640 with B27™ Supplement, minus insulin containing Wnt-059 (Selleck) was added for a final concentration of 2 μM Wnt-059, and the samples were incubated for 48 hours. The media was changed on day 4 and day 6. On day 6, media was changed to RPMI 1640 with B27™ Supplement (Gibco). […] Subsequently, media was changed every 48 hours until organoids were ready for analysis. Diabetic conditions were simulated by using basal RPMI media with 11.1 mM glucose and 58 nM insulin and compared with control media containing 3.5 mM glucose and 170 pM insulin.
Immunofluorescence. hHOs were transferred to microcentrifuge tubes (Eppendorf) using a cut 1000-μL pipette tip to avoid disruption to the organoids and fixed in 4% paraformaldehyde solution (dissolved in PBS) for 30 minutes at room temperature. […]
(§1) Confocal microscopy and image analysis. Samples were imaged using two confocal laser scanning microscopes (Nikon Instruments A1 Confocal Laser Microscope; Zeiss LSM 880 NLO Confocal Microscope System) and images were analyzed using Fiji (hypertext transfer protocol secure//imagej.net/Fiji). For tissue region quantification in the organoids, DAPI positive cells were used for normalization against the target cell marker of interest across three z-planes throughout each organoid. […]

[2] = test system: human heart organoids (hHOs); experiment: Cardiomyocyte differentiation in hHOs after initial CHIR99021 exposure (day 0, 24 hours), confocal TNNT2 quantification and beating; assay type: cell-based; conditions: for TNNT2+ cells (cardiomyocyte content): read at day 15
Procedure: Self-assembling hHO differentiation. Accutase® (Innovative Cell Technologies) was used to dissociate PSCs for spheroid formation. After dissociation, cells were centrifuged at 300 g for 5 minutes and resuspended in Essential 8™ Flex medium containing 2 μM ROCK inhibitor Thiazovivin (Millipore Sigma). hPSCs were then counted using a Moxi Cell Counter (Orflo Technologies) and seeded at 10000 cells/well in round bottom ultra-low attachment 96-well plates (Costar) on day −2. The plate was then centrifuged at 100 g for 3 minutes and placed in an incubator at 37° C. and 5% CO2. After 24 hours (day −1), 50 μl of media was carefully removed from each well and 200 μl of fresh Essential 8™ Flex medium was added for a final volume of 250 μl/well. The plate was returned to the incubator for a further 24 hours. […] On day 1, 166 μl of media was removed and replaced with fresh RPMI 1640 with B27™ Supplement, minus insulin. On day 2, RPMI 1640 with B27™ Supplement, minus insulin containing Wnt-059 (Selleck) was added for a final concentration of 2 μM Wnt-059, and the samples were incubated for 48 hours. The media was changed on day 4 and day 6. On day 6, media was changed to RPMI 1640 with B27™ Supplement (Gibco). On day 7, a second 4 μM CHIR99021 exposure was conducted for 1 hour in RPMI 1640 with B27™ Supplement. Subsequently, media was changed every 48 hours until organoids were ready for analysis. Diabetic conditions were simulated by using basal RPMI media with 11.1 mM glucose and 58 nM insulin and compared with control media containing 3.5 mM glucose and 170 pM insulin.
Immunofluorescence. hHOs were transferred to microcentrifuge tubes (Eppendorf) using a cut 1000-μL pipette tip to avoid disruption to the organoids and fixed in 4% paraformaldehyde solution (dissolved in PBS) for 30 minutes at room temperature. Fixation was followed by three washes in PBS-Glycine (20 mM) and incubation in blocking/permeabilization solution (10% Donkey Normal Serum, 0.5% Triton™ X-100, 0.5% BSA in PBS) on a thermal mixer (Thermo Scientific) at 300 RPM at 4° C. overnight. hHOs were then washed three times in PBS and incubated with primary antibodies (see Table 1) in Antibody Solution (1% Donkey Normal Serum, 0.5% Triton™ X-100, 0.5% BSA in PBS) on a thermal mixer at 300 RPM at 4° C. for 24 hours. […]
as §1

[3] = test system: FlipGFP transgenic iPSC-L1 derived hHOs; experiment: FlipGFP apoptosis reporter in hHOs (effector caspase activation); assay type: cell-based, human; conditions: 5 μM doxorubicin, positive control
Procedure: Lentiviral transduction. FlipGFP plasmid (Vector Builder) was transduced into a L1 iPSC line using a ZymoPURE™ II Plasmid Midiprep Kit (Fisher Scientific) according to manufacturer instructions. HEK293t were cultured in D10 media (DMEM+10% FBS+1% P/S) and later switched with reduced serum OptiMem™ (Gibco, Fisher Scientific) for 1 hour. Lipofectamine mixture (100 μl Lipofectamine 2000 (Thermo Fisher Scientific)+4 ml OptiMem™ sitting at room temperature for 5 minutes) was mixed with PLUS™ reagent mixture (200 μl PLUS™ reagent (Invitrogen, Fisher Scientific)+4 ml OptiMem™+20 μg lentiCRISPR plasmid+10 μg pMD2.gpVSVg (or pVSVgpMD2.g)+15 μg psPAX2) and was then added to the HEK293t cells and allowed to incubate at 37° C. for 6 hours. Following this, the media was changed to 30 ml D10+1% BSA per flask, without antibiotics. After 48-60 hours, the media was collected and centrifuged at 3000 rpm at 4° C. for 10 minutes. The supernatant was transferred to an Amicon® Filter Unit (Millipore-Sigma) and spun in a tabletop centrifuge at 3200 g for 30 minutes at 4° C. The flow through was dumped, and the process was repeated. The concentrated virus was aliquoted and stored at −80° C. Virus aliquot and polybrene (Fisher Scientific) were thawed at 37° C. Virus and polybrene were delivered to iPSC-L1s at low- to mid-confluences and incubated overnight. […]

[4] = single 2 μM CHIR99021 for 1 hour on day 7, read at day 15

Compound	formation of cardiac cell types other than epicardial cells (cardiomyocytes) ([1]; high concentrations or long exposure times of second exposure)	formation of proepicardium and epicardial cells ([1]; second exposure on day 7, 2-8 μM, 1-48 hours)	cardiomyocytes (TNNT2+ area) [1, 4]	epicardial cells (WT1+/TJP1+ area) [1, 4]	TNNT2+ cells (cardiomyocyte content) ([2]; 4 μM CHIR99021 on day 0 for 24 hours)	functional properties (beats per minute, percentage of beating hHOs) ([2]; 4 μM versus 6.6 μM and 8 μM CHIR99021)	TNNT2+ cells (cardiomyocyte content) ([2]; 6.6 μM CHIR99021 on day 0 for 24 hours)	TNNT2+ cells (cardiomyocyte content) ([2]; 8 μM CHIR99021 on day 0 for 24 hours)	apoptosis (FlipGFP fluorescence) [3]	apoptosis (FlipGFP fluorescence) ([3]; listed as Doxorubicin)
Cc1c[nH]c(-c2cnc(NCCNc3ccc(C#N)cn3)nc2-c2ccc(Cl)cc2Cl)n1 [CHIR99021]	marked inhibition	robustly promoted the formation of proepicardium and epicardial cells	60%	10-20%	64±5%	best functional properties of the three concentrations	9.6±5%	2.4±2%		
COc1cccc2c1C(=O)c1c(O)c3c(c(O)c1C2=O)C[C@@](O)(C(=O)CO)C[C@@H]3O[C@H]1C[C@H](N)[C@H](O)[C@H](C)O1 [doxorubicin]									high apoptosis	evident signs of cell death
